Measured values from ChEMBL document CHEMBL4043309, “Computer-Aided Discovery and Characterization of Novel Ebola Virus Inhibitors” (J Med Chem, 2018).
Calls of active or inactive are those of the source. The rule behind the calls is not given here.

Key:
[1] = biological target: Cathepsin B (Homo sapiens) (UniProt P07858); assay: Inhibition of recombinant cathepsin B (unknown origin) at 10 uM using Ac-RR-AFC as substrate preincubated for 29 mins followed by substrate addition by fluorescence-based assay
cells = assay type: cell-based, Ebolavirus; conditions: Orthoebolavirus, HeLa, 4.5 h
in vitro [2] = conditions: human, hela
[3] = biological target: Procathepsin L (Homo sapiens) (UniProt P07711); conditions: at 10 µM
Sequence of Procathepsin L (Homo sapiens) (P07711 114-333 limits assumed): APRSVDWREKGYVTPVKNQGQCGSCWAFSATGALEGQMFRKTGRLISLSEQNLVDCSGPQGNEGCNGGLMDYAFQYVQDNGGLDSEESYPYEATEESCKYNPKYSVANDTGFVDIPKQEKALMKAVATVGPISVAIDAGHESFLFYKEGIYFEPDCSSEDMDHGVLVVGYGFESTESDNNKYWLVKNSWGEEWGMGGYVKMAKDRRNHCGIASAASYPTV

in vitro [4] = conditions: human, hela; remark: listed apart in the source
Ebolavirus = assay: Antiviral activity against Ebolavirus Mayinga infected in African green monkey Vero E6 cells after 72 hrs by eGFP assay; assay type: functional; conditions: Orthoebolavirus, Vero C1008, 72 h

CN(C)c1ccccc1CN1CCCN(Cc2ccccc2N(C)C)C1c1ccncc1
inhibition [1]: Active
IC50 (cells): 6.83 µM
selectivity ratio (in vitro [2]): 73
inhibition [3]: Active
selectivity ratio (in vitro [4]): 73

COc1ccc2cc1Oc1ccc(cc1)C[C@H]1c3c(cc4c(c3Oc3cc5c(cc3OC)CCN(C)[C@@H]5C2)OCO4)CCN1C [CEPHARANTHINE]
IC50 (cells): 1.53 µM

CC(=O)N(C)C1(c2ccccc2)CCN(CCC[C@]2(c3ccc(Cl)c(Cl)c3)CCCN(C(=O)c3ccccc3)C2)CC1 [OSANETANT]
IC50 (cells): 9.65 µM
selectivity ratio (in vitro [2]): 52
selectivity ratio (in vitro [4]): 52

COc1cc2nc(N3CCCN(C)CC3)nc(NC3CCN(Cc4ccccc4)CC3)c2cc1OC
IC50 (cells): 0.966 µM
selectivity ratio (in vitro [2]): 45
selectivity ratio (in vitro [4]): 45
IC50 (Ebolavirus): 1 to 10 µM

CCC(=C(c1ccc(O)cc1)c1ccc(OCCN(C)C)cc1)c1ccccc1
IC50 (cells): 1.96 µM
selectivity ratio (in vitro [2]): 123
selectivity ratio (in vitro [4]): 123

CCN(CC)CCCN(c1ccccc1)C1Cc2ccccc2C1 [APRINDINE]
IC50 (cells): 7.69 µM

CC[C@]1(O)C[C@@H]2CN(CCc3c([nH]c4ccccc34)[C@@](C(=O)OC)(c3cc4c(cc3OC)N(C)[C@H]3[C@@](O)(C(N)=O)[C@H](O)[C@]5(CC)C=CCN6CC[C@]43[C@@H]65)C2)C1 [VINDESINE]
IC50 (cells): 0.272 µM
selectivity ratio (in vitro [2]): 1840
selectivity ratio (in vitro [4]): 1840

CC[C@]1(O)C[C@@H]2CN(CCc3c([nH]c4ccccc34)[C@@](C(=O)OC)(c3cc4c(cc3OC)N(C)[C@H]3[C@@](O)(C(=O)OC)[C@H](OC(C)=O)[C@]5(CC)C=CCN6CC[C@]43[C@@H]65)C2)C1 [VINBLASTINE]
EC50 (cells): 0.048 µM

CCCCc1oc2ccc(NS(C)(=O)=O)cc2c1C(=O)c1ccc(OCCCN(CCCC)CCCC)cc1 [DRONEDARONE]
IC50 (cells): 2.2 µM

CC[C@]1(O)C[C@H]2CN(CCc3c([nH]c4ccccc34)[C@@](C(=O)OC)(c3cc4c(cc3OC)N(C=O)[C@H]3[C@@](O)(C(=O)OC)[C@H](OC(C)=O)[C@]5(CC)C=CCN6CC[C@]43[C@@H]65)C2)C1 [VINCRISTINE]
IC50 (cells): 0.141 µM

CN1CCN(CCCN2c3ccccc3Sc3ccc(S(=O)(=O)N(C)C)cc32)CC1 [THIOPROPERAZINE]
IC50 (cells): 4.32 µM

Cc1ccc(CN2CCCN(C)C3(CCN(C)CC3)C2)cc1C
IC50 (cells): 6.83 µM
selectivity ratio (in vitro [2]): 73
selectivity ratio (in vitro [4]): 73
IC50 (Ebolavirus): 1 to 10 µM

CC(C)(C)c1ccc(C(=O)CCCN2CCC(OC(c3ccccc3)c3ccccc3)CC2)cc1
inhibition [3]: Active

COc1cc2c(Oc3ccc4[nH]c(C)cc4c3F)ncnc2cc1OCCCN1CCCC1 [CEDIRANIB]
IC50 (cells): 7.67 µM
selectivity ratio (in vitro [2]): 65
selectivity ratio (in vitro [4]): 65

CNC1CCC(N(Cc2cccc(-c3ccncc3)c2)C(=O)c2sc3c(F)ccc(F)c3c2Cl)CC1 (stereo unspecified)
IC50 (cells): 7.67 µM
selectivity ratio (in vitro [2]): 65
selectivity ratio (in vitro [4]): 65

COc1cc(Nc2c(C#N)cnc3cc(OCCCN4CCN(C)CC4)c(OC)cc23)c(Cl)cc1Cl [BOSUTINIB]
IC50 (cells): 3.85 µM

COCC(=O)O[C@]1(CCN(C)CCCc2nc3ccccc3[nH]2)CCc2cc(F)ccc2[C@@H]1C(C)C [MIBEFRADIL]
IC50 (cells): 4.32 µM

CN1[C@@H]2CC[C@H]1C[C@@H](OC1c3ccccc3CCc3ccccc31)C2 [DEPTROPINE]
IC50 (cells): 6.58 µM
selectivity ratio (in vitro [2]): 76
inhibition [3]: Active
selectivity ratio (in vitro [4]): 76

CC/C(=C(\c1ccc(O)cc1)c1ccc(OCCNC)cc1)c1ccccc1 [ENDOXIFEN]
IC50 (cells): 3.05 µM
selectivity ratio (in vitro [2]): 164
selectivity ratio (in vitro [4]): 164

Cc1[nH]c2c(CN3CC(CO)C(CN4CCCC4)C3)cccc2c1C (stereo unspecified)
IC50 (cells): 6.09 µM
selectivity ratio (in vitro [2]): 82
selectivity ratio (in vitro [4]): 82
IC50 (Ebolavirus): 1 to 10 µM

CCC1=C[C@@H]2CN(C1)Cc1c([nH]c3ccccc13)[C@@](C(=O)OC)(c1cc3c(cc1OC)N(C)[C@H]1[C@@](O)(C(=O)OC)[C@H](OC(C)=O)[C@]4(CC)C=CCN5CC[C@]31[C@@H]54)C2 [VINORELBINE]
IC50 (cells): 0.066 µM

COc1ccc2cc1Oc1ccc(cc1)C[C@H]1c3cc(c(OC)cc3CCN1C)Oc1c(OC)c(OC)cc3c1[C@H](C2)N(C)CC3 [FANCHININ]
IC50 (cells): 2.16 µM
selectivity ratio (in vitro [2]): 22
selectivity ratio (in vitro [4]): 22

Nc1ncnc2c1c(-c1cccc(OCc3ccccc3)c1)cn2[C@H]1C[C@H](CN2CCCC2)C1
IC50 (cells): 3.05 µM
selectivity ratio (in vitro [2]): 13
selectivity ratio (in vitro [4]): 13
IC50 (Ebolavirus): 1 to 10 µM
